# Test results: patent publication US12447153B2, “HER2 mutation inhibitors” (Array BioPharma Inc., priority 2021, dated 2025)
# How the values were obtained:
# [1] = molecular target: ErbB2 WT (Homo sapiens (Human), UniProt P04626); experiment: ErbB Enzyme Assay (HTRF KinEASE-TK), Assay 2; type: biochemical
# [2] = molecular target: EGFR (Homo sapiens (Human), UniProt P00533); experiment: ErbB Enzyme Assay (HTRF KinEASE-TK), Assay 3; type: biochemical
# [3] = molecular target: ErbB2 with Exon 20 YVMA insertion (HER2-YVMA) (Homo sapiens (Human), UniProt P04626, INS775YVMA); experiment: Cellular Phosphorylation Assay, Assay 4 (constitutive ErbB2 phosphorylation, NIH 3T3 cells); type: cell-based
# ErbB2 with Exon 20 YVMA insertion (HER2-YVMA), sequence (P04626 other isoform, or with tags, fused parts or gaps ins YVMA behind 775): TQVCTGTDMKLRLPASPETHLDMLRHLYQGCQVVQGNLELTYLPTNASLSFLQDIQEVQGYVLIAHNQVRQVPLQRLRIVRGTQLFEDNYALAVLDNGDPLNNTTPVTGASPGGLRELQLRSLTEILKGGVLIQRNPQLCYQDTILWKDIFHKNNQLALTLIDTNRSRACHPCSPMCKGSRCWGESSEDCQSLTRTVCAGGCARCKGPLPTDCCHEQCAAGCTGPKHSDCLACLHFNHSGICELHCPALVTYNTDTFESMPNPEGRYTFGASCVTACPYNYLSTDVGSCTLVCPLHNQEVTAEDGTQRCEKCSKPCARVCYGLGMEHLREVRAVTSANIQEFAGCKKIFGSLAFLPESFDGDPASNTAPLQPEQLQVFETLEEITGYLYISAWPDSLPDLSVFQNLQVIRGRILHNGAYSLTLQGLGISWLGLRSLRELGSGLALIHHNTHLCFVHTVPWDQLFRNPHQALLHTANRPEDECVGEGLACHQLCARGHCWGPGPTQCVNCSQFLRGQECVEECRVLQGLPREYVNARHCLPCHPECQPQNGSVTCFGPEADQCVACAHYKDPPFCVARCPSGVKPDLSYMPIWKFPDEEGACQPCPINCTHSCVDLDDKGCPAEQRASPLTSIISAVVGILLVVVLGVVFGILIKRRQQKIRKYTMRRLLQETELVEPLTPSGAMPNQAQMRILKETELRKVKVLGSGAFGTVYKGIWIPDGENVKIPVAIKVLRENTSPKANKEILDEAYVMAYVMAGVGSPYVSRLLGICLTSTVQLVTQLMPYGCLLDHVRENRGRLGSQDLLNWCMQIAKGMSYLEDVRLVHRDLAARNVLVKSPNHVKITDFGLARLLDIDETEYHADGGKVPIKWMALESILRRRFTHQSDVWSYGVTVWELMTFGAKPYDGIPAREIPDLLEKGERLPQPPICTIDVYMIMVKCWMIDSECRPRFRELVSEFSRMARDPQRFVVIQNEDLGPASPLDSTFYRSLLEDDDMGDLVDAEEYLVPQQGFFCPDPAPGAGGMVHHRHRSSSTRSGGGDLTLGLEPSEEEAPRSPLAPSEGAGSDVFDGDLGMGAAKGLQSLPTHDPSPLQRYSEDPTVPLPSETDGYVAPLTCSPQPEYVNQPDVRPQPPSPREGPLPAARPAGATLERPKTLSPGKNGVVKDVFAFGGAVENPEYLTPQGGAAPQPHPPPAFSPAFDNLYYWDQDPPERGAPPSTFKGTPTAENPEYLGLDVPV
# [4] = molecular target: EGFR wild type (EGFR WT) (Homo sapiens (Human), UniProt P00533); experiment: Cellular Phosphorylation Assay, Assay 5 (EGF-stimulated EGFR phosphorylation, NIH 3T3 cells); type: cell-based
# [5] = molecular target: BCRP (Homo sapiens (Human), UniProt Q9UNQ0); experiment: BCRP MDCKII efflux assay (Assay 7); type: in vitro ADME; conditions: dog; efflux ratio Papp(B-A)/Papp(A-B), BCRP MDCKII cells; read-out: Assay 7 Pe Ratio
# BCRP, sequence (Q9UNQ0 whole entry): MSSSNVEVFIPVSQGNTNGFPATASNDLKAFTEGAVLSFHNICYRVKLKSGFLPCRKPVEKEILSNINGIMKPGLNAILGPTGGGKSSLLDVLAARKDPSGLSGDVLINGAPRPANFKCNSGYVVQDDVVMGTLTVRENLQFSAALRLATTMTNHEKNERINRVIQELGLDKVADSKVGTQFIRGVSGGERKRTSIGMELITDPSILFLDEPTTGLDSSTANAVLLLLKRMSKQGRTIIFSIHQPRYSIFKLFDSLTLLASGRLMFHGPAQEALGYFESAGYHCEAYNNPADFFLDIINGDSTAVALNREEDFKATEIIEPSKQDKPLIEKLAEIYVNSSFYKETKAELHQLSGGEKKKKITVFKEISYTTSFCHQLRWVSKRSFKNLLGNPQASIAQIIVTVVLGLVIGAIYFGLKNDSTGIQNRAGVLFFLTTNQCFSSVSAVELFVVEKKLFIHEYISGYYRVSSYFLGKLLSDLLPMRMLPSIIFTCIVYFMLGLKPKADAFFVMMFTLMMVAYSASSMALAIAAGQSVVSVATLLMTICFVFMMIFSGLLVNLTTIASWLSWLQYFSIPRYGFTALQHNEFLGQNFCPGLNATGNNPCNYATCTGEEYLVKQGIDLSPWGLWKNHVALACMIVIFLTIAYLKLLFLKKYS
# Procedure: Assay conditions included with and without the BCRP-specific inhibitor, KO143, at a concentration of 0.3 μM to ascertain the contribution of BCRP to the efflux value of the test compound.
# Final organic concentration in the assay was 1%.
# [6] = molecular target: MDR1 (P-gp) (Homo sapiens (Human), UniProt P08183); experiment: in vitro; conditions: pig, LLC-PK1
# Procedure: Both LLC-PK1 and MDR1 transfected LLC-PK1 cells were cultured and plated according to manufacturer's recommendations with the exception that the passage media contained only 2% fetal bovine serum so as to extend passage time out to seven days.
# Both positive and negative controls were used to assess functionality of P-gp or BCRP efflux in the assays. Stock solutions for assay controls and the test article were prepared in DMSO for final test concentrations of 10 μM and 1 μM, respectively. Final organic concentration in the assay was 1%. All dosing solutions contained 10 μM lucifer yellow to monitor LLC PK1 or MDCKII cell monolayer integrity.
# For the apical to basolateral determination (A to B), 75 μL of the test article in transport buffer were added to the apical side of the individual transwells and 250 μL of basolateral media, without compound or lucifer yellow, were added to each well. For the basolateral to apical determination (B to A), 250 μL of test article in transport buffer were added to each well and 75 μL transport buffer, without compound or lucifer yellow, were added to each transwell. All tests were performed in triplicate, and each compound was tested for both apical to basolateral and basolateral to apical transport. The plates were incubated for 2 hours on a Lab-Line Instruments Titer Orbital Shaker (VWR, West Chester, PA) at 50 rpm and 37° C. with 5% CO2. All culture plates were removed from the incubator, 50 μL of media were removed from the apical and basolateral portion of each well, and added to 150 μL of 1 μM labetalol in 2:1 acetonitrile (ACN): H2O, v/v.
# The plates were read using a Molecular Devices (Sunnyvale, CA) Gemini Fluorometer to evaluate the lucifer yellow concentrations at excitation/emission wavelengths of 425/535 nm. These values were accepted when found to be below 2% for apical to basolateral and 5% basolateral to apical flux across the MDR1-transfected LLC-PK1 or BCRP-transfected MDCKII cell monolayers. The plates were sealed, and the contents of each well analyzed by LC MS/MS. The compound concentrations were determined from the ratio of the peak areas of the compound to the internal standard (labetalol) in comparison to the dosing solution.
# The LC-MS/MS system was comprised of an HTS-PAL autosampler (Leap Technologies, Carrboro, NC), an HP1200 HPLC (Agilent, Palo Alto, CA), and a MDS Sciex 4000 Q Trap system (Applied Biosystems, Foster City, CA). […] The total run time, including re-equilibration, for a single injection was 1.2 minutes. Mass spectrometric detection of the analytes was accomplished using the ion spray positive mode. Analyte responses were measured by multiple reaction monitoring (MRM) of transitions unique to each compound (the protonated precursor ion and selected product ions for each test article and m/z 329 to m/z 162 for labetalol, the internal standard).
# An efflux ratio is calculated from the mean apical to basolateral (A-B) Papp data and basolateral to apical (B-A) Papp data: Efflux ratio=Papp(B−A)/Papp(A−B)
# [7] = EGF-stimulated EGFR WT phosphorylation
# [8] = cellular ErbB2 YVMA phosphorylation
# [9] = cellular EGFR WT phosphorylation, EGF-stimulated
# ErbB2 WT, sequence (P04626 23-1255): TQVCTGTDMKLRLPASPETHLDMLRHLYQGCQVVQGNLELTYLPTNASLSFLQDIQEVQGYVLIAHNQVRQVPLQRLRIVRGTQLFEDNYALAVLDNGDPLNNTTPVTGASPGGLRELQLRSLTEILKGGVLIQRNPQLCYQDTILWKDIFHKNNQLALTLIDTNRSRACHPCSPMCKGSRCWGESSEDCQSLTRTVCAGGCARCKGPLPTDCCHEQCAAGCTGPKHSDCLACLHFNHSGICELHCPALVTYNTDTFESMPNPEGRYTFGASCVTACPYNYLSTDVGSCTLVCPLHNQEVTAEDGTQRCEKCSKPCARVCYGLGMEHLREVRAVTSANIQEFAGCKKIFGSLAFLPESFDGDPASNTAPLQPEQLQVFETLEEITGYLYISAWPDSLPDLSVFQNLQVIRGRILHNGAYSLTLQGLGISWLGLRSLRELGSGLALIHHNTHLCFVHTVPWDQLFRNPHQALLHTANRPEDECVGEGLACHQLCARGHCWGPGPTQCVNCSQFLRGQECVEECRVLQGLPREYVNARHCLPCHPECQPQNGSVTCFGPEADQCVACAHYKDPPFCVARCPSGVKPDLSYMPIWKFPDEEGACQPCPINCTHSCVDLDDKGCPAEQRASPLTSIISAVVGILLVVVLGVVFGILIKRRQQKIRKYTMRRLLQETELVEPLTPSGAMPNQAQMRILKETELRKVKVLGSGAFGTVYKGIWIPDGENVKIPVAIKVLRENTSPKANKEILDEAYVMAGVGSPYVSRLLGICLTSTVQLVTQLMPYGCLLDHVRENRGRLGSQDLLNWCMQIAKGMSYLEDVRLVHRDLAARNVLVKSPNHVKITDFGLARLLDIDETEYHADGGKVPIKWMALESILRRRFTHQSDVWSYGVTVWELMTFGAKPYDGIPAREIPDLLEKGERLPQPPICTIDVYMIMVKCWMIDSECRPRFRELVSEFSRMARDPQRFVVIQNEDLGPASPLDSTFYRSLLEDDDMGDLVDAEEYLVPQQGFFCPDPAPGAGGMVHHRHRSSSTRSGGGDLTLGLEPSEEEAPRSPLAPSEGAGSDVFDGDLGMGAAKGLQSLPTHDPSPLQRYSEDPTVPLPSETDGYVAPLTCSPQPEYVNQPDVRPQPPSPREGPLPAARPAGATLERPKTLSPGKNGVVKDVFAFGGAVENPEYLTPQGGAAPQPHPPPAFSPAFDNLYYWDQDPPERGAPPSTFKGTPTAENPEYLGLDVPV
# EGFR, sequence (P00533 25-1210): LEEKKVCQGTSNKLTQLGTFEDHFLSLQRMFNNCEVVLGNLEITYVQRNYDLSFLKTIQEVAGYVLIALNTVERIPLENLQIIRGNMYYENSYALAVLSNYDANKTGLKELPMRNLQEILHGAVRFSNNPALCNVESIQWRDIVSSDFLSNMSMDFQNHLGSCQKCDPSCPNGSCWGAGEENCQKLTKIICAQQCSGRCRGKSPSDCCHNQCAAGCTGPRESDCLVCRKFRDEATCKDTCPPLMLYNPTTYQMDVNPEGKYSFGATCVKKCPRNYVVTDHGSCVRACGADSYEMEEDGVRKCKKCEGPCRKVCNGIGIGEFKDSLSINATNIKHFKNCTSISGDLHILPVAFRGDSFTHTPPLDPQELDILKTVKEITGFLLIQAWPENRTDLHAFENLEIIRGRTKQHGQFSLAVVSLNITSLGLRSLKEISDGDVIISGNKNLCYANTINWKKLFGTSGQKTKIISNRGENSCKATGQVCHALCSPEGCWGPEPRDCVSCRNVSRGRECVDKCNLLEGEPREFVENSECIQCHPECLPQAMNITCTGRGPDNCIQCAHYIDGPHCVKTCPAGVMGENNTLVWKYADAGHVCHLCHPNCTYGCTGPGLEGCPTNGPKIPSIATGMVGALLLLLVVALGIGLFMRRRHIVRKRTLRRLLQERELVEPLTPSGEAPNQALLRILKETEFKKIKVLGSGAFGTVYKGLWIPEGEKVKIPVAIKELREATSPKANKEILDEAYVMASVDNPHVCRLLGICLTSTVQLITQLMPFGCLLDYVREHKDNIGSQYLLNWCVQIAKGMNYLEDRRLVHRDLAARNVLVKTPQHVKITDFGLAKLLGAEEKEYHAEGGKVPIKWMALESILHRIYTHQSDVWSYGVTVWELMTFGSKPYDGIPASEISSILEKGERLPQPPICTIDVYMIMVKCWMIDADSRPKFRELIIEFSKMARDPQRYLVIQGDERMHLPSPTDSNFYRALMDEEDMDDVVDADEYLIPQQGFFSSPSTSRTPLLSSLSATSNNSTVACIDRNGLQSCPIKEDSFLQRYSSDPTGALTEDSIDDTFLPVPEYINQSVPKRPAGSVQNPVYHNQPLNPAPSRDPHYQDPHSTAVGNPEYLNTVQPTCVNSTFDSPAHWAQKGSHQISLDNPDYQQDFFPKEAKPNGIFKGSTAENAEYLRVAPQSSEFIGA
SMILES,IC50 ([1]; ErbB2 WT enzyme),IC50 ([2]; EGFR enzyme),IC50 ([3]; ErbB2 YVMA phosphorylation),"IC50 [4, 7]","efflux ratio at 2 h, 1 µM [5]","efflux ratio at 2 h, 1 µM [6]",IC50 ([1]; ErbB2 WT enzyme assay),IC50 ([2]; EGFR enzyme assay),"IC50 [3, 8]","IC50 [4, 9]"
"C=CC(=O)N1CCC(Sc2ccc3ncnc(Nc4ccc(Oc5ccc6c(c5)ncn6C)c(C)c4F)c3n2)CC1 [Example 28, 1-(4-((4-((2-fluoro-3-methyl-4-((1-methyl-1H-benzo[d]imidazol-5-yl)oxy)phenyl)amino)pyrido[3,2-d]pyrimidin-6-yl)thio)piperidin-1-yl)prop-2-en-1-one]",275 nM,≥ 10000 nM,26.4 nM,≥ 5000 nM,5.2,2,–,–,–,–
"C=CC(=O)N1C[C@H](c2ccc3ncnc(Nc4ccc(Oc5ccc6c(c5)ncn6C)c(C)c4F)c3n2)CCC1(C)C (racemic) [Example 36, 1-(5-(4-((2-fluoro-3-methyl-4-((1-methyl-1H-benzo[d]imidazol-5-yl)oxy)phenyl)amino)pyrido[3,2-d]pyrimidin-6-yl)-2,2-dimethylpiperidin-1-yl)prop-2-en-1-one]",105 nM,≥ 10000 nM,18.9 nM,1700 nM,4.2,0.8,–,–,–,–
"C=CC(=O)N1CC[C@@H](c2ccc3ncnc(Nc4ccc(Oc5ccn6ncnc6c5)c(C)c4F)c3n2)CC12CC2 (single isomer, unassigned) [Example 173]",105 nM,≥ 10000 nM,21 nM,2310 nM,3,0.7,–,–,–,–
"C=CC(=O)N1CCN(c2ccc3ncnc(Nc4cc(C)c(Oc5ccn6ncnc6c5)cc4F)c3n2)C[C@H]1CC [Example 164, (R)-1-(4-(4-((4-([1,2,4]triazolo[1,5-a]pyridin-7-yloxy)-2-fluoro-5-methylphenyl)amino)pyrido[3,2-d]pyrimidin-6-yl)-2-ethylpiperazin-1-yl)prop-2-en-1-one]",45.8 nM,≥ 10000 nM,14.7 nM,665 nM,2.5,1.1,–,–,–,–
"C=CC(=O)N1C[C@H]2CC[C@@H](C1)[C@@H]2c1ccc2ncnc(Nc3cc(C)c(Oc4ccn5ncnc5c4)cc3F)c2n1 [Example 222, 1-((1R,5S,8r)-8-(4-((4-([1,2,4]triazolo[1,5-a]pyridin-7-yloxy)-2-fluoro-5-methylphenyl)amino)pyrido[3,2-d]pyrimidin-6-yl)-3-azabicyclo[3.2.1]octan-3-yl)prop-2-en-1-one]",133 nM,5830 nM,309 nM,≥ 5000 nM,1.4,1.3,–,–,–,–
"C=CC(=O)N1CCN(c2ccc3ncnc(Nc4ccc(Oc5ccn6ncnc6c5)c(Cl)c4F)c3n2)CC1 [Example 30, 1-(4-(4-((4-([1,2,4]triazolo[1,5-a]pyridin-7-yloxy)-3-chloro-2-fluorophenyl)amino)pyrido[3,2-d]pyrimidin-6-yl)piperazin-1-yl)prop-2-en-1-one]",6 nM,200 nM,2.3 nM,87.6 nM,5,1.5,–,–,–,–
C=CC(=O)N1CCN(c2ccc3ncnc(Nc4cc(C)c(Oc5cnc6c(c5)ncn6C)cc4F)c3n2)CC1(C)C [Example 357],–,–,–,–,6.2,1.6,122 nM,5050 nM,17.1 nM,≥ 5000 nM
"C=CC(=O)N1[C@@H]2CC[C@H]1[C@H](c1ccc3ncnc(Nc4ccc(Oc5ccn6ncnc6c5)c(C)c4F)c3n1)C2 (racemic) [Example 213, rac-1-((1 S,2R,4R)-2-(4-((4-([1,2,4]triazolo[1,5-a]pyridin-7-yloxy)-2-fluoro-3-methylphenyl)amino)pyrido[3,2-d]pyrimidin-6-yl)-7-azabicyclo[2.2.1]heptan-7-yl)prop-2-en-1-one]",7.3 nM,264 nM,23.9 nM,≥ 5000 nM,3.4,1.5,–,–,–,–
"C=CC(=O)N1CC[C@H]2C[C@@H](c3ccc4ncnc(Nc5cc(C)c(Oc6ccc7c(c6)ncn7C)cc5F)c4n3)C[C@H]21 (racemic) [Example 37, 1-(5-(4-((2-fluoro-5-methyl-4-((1-methyl-1H-benzo[d]imidazol-5-yl)oxy)phenyl)amino)pyrido[3,2-d]pyrimidin-6-yl)hexahydrocyclopenta[b]pyrrol-1(2H)-yl)prop-2-en-1-one]",119 nM,≥ 10000 nM,20.3 nM,≥ 5000 nM,1.8,1.5,–,–,–,–
"C=CC(=O)N1[C@H]2CC[C@@H]1[C@@H](c1ccc3ncnc(Nc4ccc(Oc5ccn6ncnc6c5)c(C)c4F)c3n1)C2 (single isomer, unassigned) [Example 229]",16.7 nM,380 nM,29.9 nM,≥ 5000 nM,3,0.7,–,–,–,–
C=CC(=O)N1CCC12CN(c1ccc3ncnc(Nc4cc(C)c(Oc5ccn6ncnc6c5)cc4F)c3n1)C2 [Example 361],–,–,–,–,2.3,2.9,33.6 nM,908 nM,8 nM,760 nM
C=CC(=O)N1[C@@H]2CCC[C@H]1[C@@H](c1ccc3ncnc(Nc4ccc(Oc5ccn6ncnc6c5)c(C)c4F)c3n1)C2 [Example 415],–,–,–,–,1.8,1,9.8 nM,247 nM,32 nM,≥ 5000 nM
"C=CC(=O)N1[C@@H]2CC[C@H]1[C@H](c1ccc3ncnc(Nc4ccc(Oc5ccn6ncnc6c5)c(C)c4F)c3n1)C2 (single isomer, unassigned) [Example 228]",130 nM,4550 nM,33.6 nM,≥ 5000 nM,3.3,0.8,–,–,–,–
"C=CC(=O)N1CCCC[C@@H](c2ccc3ncnc(Nc4ccc(Oc5ccc6c(c5)ncn6C)c(C)c4F)c3n2)C1 (racemic) [Example 145, rac-(R)-1-(3-(4-((2-fluoro-3-methyl-4-((1-methyl-1H-benzo[d]imidazol-5-yl)oxy)phenyl)amino)pyrido[3,2-d]pyrimidin-6-yl)azepan-1-yl)prop-2-en-1-one]",5.9 nM,410 nM,15.3 nM,582 nM,1.4,6.4,–,–,–,–
C=CC(=O)N1[C@@H]2CC[C@H]1[C@H](c1ccc3ncnc(Nc4ccc(Oc5ccn6ncnc6c5)c(Cl)c4F)c3n1)C2 [Example 404],–,–,–,–,5.2,1.2,7.2 nM,104 nM,11.5 nM,≥ 5000 nM
"C=CC(=O)N1CCCC(c2ccc3ncnc(Nc4ccc(Oc5ccc6c(c5)ncn6C)c(C)c4)c3n2)CC1 (stereo not drawn) [Example 121, 1-(4-(4-((3-methyl-4-((1-methyl-1H-benzo[d]imidazol-5-yl)oxy)phenyl)amino)pyrido[3,2-d]pyrimidin-6-yl)azepan-1-yl)prop-2-en-1-one]",30.8 nM,5570 nM,9.1 nM,4580 nM,4,1.9,–,–,–,–
"C=CC(=O)N1[C@@H]2CC[C@H]1CC(c1ccc3ncnc(Nc4ccc(Oc5ccc6c(c5)ncn6C)c(C)c4F)c3n1)C2 (mixture of isomers) [Example 143, rac-1-((1R,5S)-3-(4-((2-fluoro-3-methyl-4-((1-methyl-1H-benzo[d]imidazol-5-yl)oxy)phenyl)amino)pyrido[3,2-d]pyrimidin-6-yl)-8-azabicyclo[3.2.1]octan-8-yl)prop-2-en-1-one]",32.7 nM,1850 nM,20.9 nM,2940 nM,3,1.7,–,–,–,–
C=CC(=O)N1[C@@H]2CC[C@H]1[C@H](c1ccc3ncnc(Nc4ccc(Oc5cnc6c(c5)ncn6C)c(C)c4)c3n1)C2 [Example 408],–,–,–,–,2.2,1.1,32 nM,498 nM,23.7 nM,≥ 5000 nM
"C=CC(=O)N1[C@@H]2CC[C@H]1[C@H](c1ccc3ncnc(Nc4ccc(Oc5ccn6ncnc6c5)c(C)c4)c3n1)C2 (racemic) [Example 220, rac-1-((1 S,2R,4R)-2-(4-((4-([1,2,4]triazolo[1,5-a]pyridin-7-yloxy)-3-methylphenyl)amino)pyrido[3,2-d]pyrimidin-6-yl)-7-azabicyclo[2.2.1]heptan-7-yl)prop-2-en-1-one]",17.9 nM,412 nM,18.5 nM,≥ 5000 nM,2.2,1.3,–,–,–,–
"C=CC(=O)N1C2CC1CN(c1ccc3ncnc(Nc4cc(C)c(Oc5ccn6ncnc6c5)cc4F)c3n1)C2 [Example 43, 1-(3-(4-((4-([1,2,4]triazolo[1,5-a]pyridin-7-yloxy)-2-fluoro-5-methylphenyl)amino)pyrido[3,2-d]pyrimidin-6-yl)-3,6-diazabicyclo[3.1.1]heptan-6-yl)prop-2-en-1-one]",120 nM,≥ 10000 nM,21.3 nM,≥ 5000 nM,4.1,3,–,–,–,–
